From patent US8802678B2, “Carbonylated (aza) cyclohexanes as dopamine D3 receptor ligands” (Bioprojet, priority 2006, dated 2014)

Row | SMILES | melting point [°C]
1 | N#CCCCC(=O)N[C@H]1CC[C@H](CCN2CCN(c3cc(F)cc(C(F)(F)F)c3)CC2)CC1 [Example 665, 4-Cyano-N-(4-{2-[4-(3-fluoro-5-trifluoromethylphenyl)piperazin-1-yl]ethyl}cyclohexyl)butanamide] | 163
2 | N#CCCC(=O)N[C@H]1CC[C@H](CCN2CCN(c3cc(C(F)(F)F)ccc3F)CC2)CC1 [Example 668, 3-Cyano-N-(4-{2-[4-(2-fluoro-5-trifluoromethylphenyl)piperazin-1-yl]ethyl}cyclohexyl)propanamide] | 164
3 | O=C(CC(F)(F)F)N[C@H]1CC[C@H](CCN2CCN(c3cc(C(F)(F)F)ccc3F)CC2)CC1 [Example 670, 3,3,3-Trifluoro-N-(4-{2-[4-(2-fluoro-5-trifluoromethylphenyl)piperazin-1-yl]ethyl}cyclohexyl) propanamide] | 177
4 | NC(=O)CC(=O)N[C@H]1CC[C@H](CCN2CCN(c3cc(C(F)(F)F)ccc3F)CC2)CC1 [Example 671, N-(4-{2-[4-(2-Fluoro-5-trifluoromethylphenyl)piperazin-1-yl]ethyl}cyclohexyl)-malonamide] | 185
5 | CCc1ccc(F)c(N2CCN(CC[C@H]3CC[C@H](NC(=O)CC#N)CC3)CC2)c1 [Example 673, 2-Cyano-N-(4-{2-[4-(5-ethyl-2-fluorophenyl)piperazin-1-yl]ethyl}cyclohexyl)acetamide] | 180
6 | CCc1ccc(F)c(N2CCN(CC[C@H]3CC[C@H](NC(=O)CCCC#N)CC3)CC2)c1 [Example 674, 4-Cyano-N-(4-{2-[4-(5-ethyl-2-fluorophenyl)piperazin-1-yl]ethyl}cyclohexyl)butanamide] | 153
7 | COCCCC(=O)N[C@H]1CC[C@H](CCN2CCN(c3cccc(C)c3)CC2)CC1 [Example 675, 4-Methoxy-N-{4-[2-(4-m-tolylpiperazin-1-yl)ethyl]cyclohexyl}butanamide] | 148
8 | COCCCC(=O)N[C@H]1CC[C@H](CCN2CCN(c3ccc(Cl)c(Cl)c3F)CC2)CC1 [Example 684, N-(4-{2-[4-(3,4-Dichloro-2-fluoro-phenyl)piperazin-1-yl]ethyl}cyclohexyl)-4-methoxybutanamide] | 210
9 | CSc1cccc(N2CCN(CCC3CCN(CC(C)=O)CC3)CC2)c1 [Example 686, 1-(4-{2-[4-(3-Methylsulfanyl-phenyl)piperazin-1-yl]ethyl}-piperidin-1-yl)propan-2-one] | 113
10 | N#CCC(=O)N[C@H]1CC[C@H](CCN2CCN(c3ccc(F)c(C#N)c3F)CC2)CC1 [Example 687, 2-Cyano-N-(4-{2-[4-(3-cyano-2,4-difluorophenyl)piperazin-1-yl]ethyl}cyclohexyl)acetamide] | 210
11 | N#CCCCC(=O)N[C@H]1CC[C@H](CCN2CCN(c3ccc(F)c(C#N)c3F)CC2)CC1 [Example 688, 4-Cyano-N-(4-{2-[4-(3-cyano-2,4-difluorophenyl)piperazin-1-yl]ethyl}cyclohexyl)butanamide] | 203
12 | COCCCC(=O)N[C@H]1CC[C@H](CCN2CCN(c3cccc(F)c3C)CC2)CC1 [Example 689, N-(4-{2-[4-(3-Fluoro-2-methylphenyl)piperazin-1-yl]ethyl}cyclohexyl)-4-methoxybutanamide] | 172
13 | CC(=O)CN1CCC(CCN2CCN(c3ccc(F)c(C#N)c3F)CC2)CC1 [Example 690, 2,6-Difluoro-3-(4-{2-[1-(2-oxo-propyl)piperidin-4-yl]ethyl}piperazin-1-yl)benzonitrile] | 108
14 | COCCCC(=O)N[C@H]1CC[C@H](CCN2CCN(c3cc(Cl)cc(Cl)c3)CC2)CC1 [Example 691, N-(4-{2-[4-(3,5-Dichlorophenyl)piperazin-1-yl]ethyl}cyclohexyl)-4-methoxybutanamide] | 184
15 | COCCCC(=O)N[C@H]1CC[C@H](CCN2CCN(c3ccc(F)c(C#N)c3F)CC2)CC1 [Example 692, N-(4-{2-[4-(3-Cyano-2,4-difluorophenyl)piperazin-1-yl]ethyl}cyclohexyl)-4-methoxybutanamide] | 211
16 | CC(=O)CN1CCC(CCN2CCN(c3cc(F)c(F)c(F)c3)CC2)CC1 [Example 697, 1-(4-{2-[4-(3,4,5-Trifluoro-phenyl)-piperazin-1-yl]ethyl}piperidin-1-yl)propan-2-one] | 86
17 | COCCCC(=O)N[C@H]1CC[C@H](CCN2CCN(c3ccc(Cl)cc3)CC2)CC1 [Example 698, N-(4-{2-[4-(4-Chlorophenyl)-piperazin-1-yl]ethyl}cyclohexyl)-4-methoxybutanamide] | 204
18 | COCC(=O)N[C@H]1CC[C@H](CCN2CCN(c3cc(C(F)(F)F)ccc3F)CC2)CC1 [Example 701, N-(4-{2-[4-(2-Fluoro-5-trifluoromethylphenyl)piperazin-1-yl]ethyl}cyclohexyl)-2-methoxyacetamide] | 139

Now from value to compound:

Row | melting point [°C] | SMILES
19 | 199 | O=C(N[C@H]1CC[C@H](CCN2CCN(c3cc(C(F)(F)F)ccc3F)CC2)CC1)C1=CCCC1 [Example 705]
20 | 192 | CS(=O)(=O)CC(=O)N[C@H]1CC[C@H](CCN2CCN(c3cc(C(F)(F)F)ccc3F)CC2)CC1 [Example 706, N-(4-{2-[4-(2-Fluoro-5-trifluoromethylphenyl)piperazin-1-yl]ethyl}cyclohexyl)-2-methanesulfonylacetamide]
21 | 214 | N#CCC(=O)N[C@H]1CC[C@H](CCN2CCN(c3cc(F)c(F)c(F)c3F)CC2)CC1 [Example 708, 2-Cyano-N-(4-{2-[4-(2,3,4,5-tetrafluorophenyl)piperazin-1-yl]ethyl}cyclohexyl)acetamide]
22 | 189 | N#CCC(=O)N[C@H]1CC[C@H](CCN2CCN(c3ccc(Cl)cc3Cl)CC2)CC1 [Example 709, 2-Cyano-N-(4-{2-[4-(2,4-dichlorophenyl)piperazin-1-yl]ethyl}cyclohexyl)acetamide]
23 | 126 | CC(=O)CN1CCC(CCN2CCN(c3ccc4c(c3)OCCO4)CC2)CC1 [Example 711, 1-(4-{2-[4-(2,3-Dihydrobenzo[1,4]dioxin-6-yl)piperazin-1-yl]ethyl}piperidin-1-yl)propan-2-one]
24 | 195 | COCCCC(=O)N[C@H]1CC[C@H](CCN2CCN(c3cc(C)cc(C)c3)CC2)CC1 [Example 715, N-(4-{2-[4-(3,5-Dimethylphenyl)-piperazin-1-yl]ethyl}cyclohexyl)-4-methoxybutanamide]
25 | 175 | Cc1cc(C)cc(N2CCN(CC[C@H]3CC[C@H](NC(=O)CCC#N)CC3)CC2)c1 [Example 716, 3-Cyano-N-(4-{2-[4-(3,5-dimethylphenyl)piperazin-1-yl]ethyl}cyclohexyl)propanamide]
26 | 200 | N#CCC(=O)N[C@H]1CC[C@H](CCN2CCN(c3cc(Cl)c(Cl)cc3Cl)CC2)CC1 [Example 717, 2-Cyano-N-(4-{2-[4-(2,4,5-trichlorophenyl)piperazin-1-yl]ethyl}cyclohexyl)acetamide]
27 | 172 | COCC(=O)N[C@H]1CC[C@H](CCN2CCN(c3ccc(Cl)c(Cl)c3F)CC2)CC1 [Example 719, N-(4-{2-[4-(3,4-Dichloro-2-fluorophenyl)piperazin-1-yl]ethyl}cyclohexyl)-2-methoxyacetamide]
28 | 210 | N#CCCC(=O)N[C@H]1CC[C@H](CCN2CCN(c3ccc(Cl)c(Cl)c3F)CC2)CC1 [Example 720, 3-Cyano-N-(4-{2-[4-(3,4-dichloro-2-fluorophenyl)piperazin-1-yl]ethyl}cyclohexyl)propanamide]
29 | 180 | Cc1cc(F)cc(N2CCN(CC[C@H]3CC[C@H](NC(=O)CC#N)CC3)CC2)c1 [Example 725, 2-Cyano-N-(4-{2-[4-(3-fluoro-5-methylphenyl)piperazin-1-yl]ethyl}cyclohexyl)acetamide]
30 | 150 | Cc1cc(F)cc(N2CCN(CC[C@H]3CC[C@H](NC(=O)CCCC#N)CC3)CC2)c1 [Example 726, 4-Cyano-N-(4-{2-[4-(3-fluoro-5-methylphenyl)piperazin-1-yl]ethyl}cyclohexyl)butanamide]
31 | 217 | N#CCC(=O)N[C@H]1CC[C@H](CCN2CCN(c3ccc(Cl)c(Cl)c3Cl)CC2)CC1 [Example 729, 2-Cyano-N-(4-{2-[4-(2,3,4-trichlorophenyl)piperazin-1-yl]ethyl}cyclohexyl)acetamide]
32 | 158 | N#CCCCCC(=O)N[C@H]1CC[C@H](CCN2CCN(c3cc(C(F)(F)F)ccc3F)CC2)CC1 [Example 731]
33 | 190 | N#CCCC(=O)N[C@H]1CC[C@H](CCN2CCN(c3ccc(F)c(Cl)c3F)CC2)CC1 [Example 732, N-(4-{2-[4-(3-Chloro-2,4-difluorophenyl)piperazin-1-yl]ethyl}cyclohexyl)-3-cyanopropanamide]
34 | 94 | N#CCCC(=O)N1CCC(CCN2CCN(c3cccc(Cl)c3Cl)CC2)CC1 [Example 733, 4-(4-{2-[4-(2,3-Dichlorophenyl)piperazin-1-yl]ethyl}piperidin-1-yl)-4-oxobutanonitrile]
35 | 159 | COCC(=O)N[C@H]1CC[C@H](CCN2CCN(c3cccc(C(F)(F)F)c3C)CC2)CC1 [Example 734, 2-Methoxy-N-(4-{2-[4-(2-methyl-3-trifluoromethylphenyl)piperazin-1-yl]ethyl}cyclohexyl)acetamide]
36 | 173 | COCCCC(=O)N[C@H]1CC[C@H](CCN2CCN(c3cccc(C(F)(F)F)c3C)CC2)CC1 [Example 735, 4-Methoxy-N-(4-{2-[4-(2-methyl-3-trifluoromethylphenyl)piperazin-1-yl]ethyl}cyclohexyl)butanamide]
37 | 182 | O=C(CCC(F)(F)F)N[C@H]1CC[C@H](CCN2CCN(c3cc(C(F)(F)F)ccc3F)CC2)CC1 [Example 736, 4,4,4-Trifluoro-N-(4-{2-[4-(2-fluoro-5-trifluoromethyl-phenyl)piperazin-1-yl]ethyl}cyclohexyl)butanamide]
38 | 165 | NC(=O)CC(=O)N[C@H]1CC[C@H](CCN2CCN(c3cc(C(F)(F)F)cc(C(F)(F)F)c3)CC2)CC1 [Example 738, N-(4-{2-[4-(3,5-Bistrifluoro-methylphenyl)piperazin-1-yl]ethyl}cyclohexyl)malonamide]
